From US7456154B2 (priority 2001, dated 2008)

Columns and labels:
healthy rats = assay: Electromyography: CMAP ratio in naive (healthy) rats; format: in vivo, rat; conditions: for CMAP ratio (5th vs. 1st amplitude): naive rats, 50 μg/Kg, average ± SEM
Experimental: Electromyography: Rats were anesthetized by i.p. injection of […] pentobarbital, immobilized, and subjected to repetitive sciatic nerve stimulation, using a pair of concentric needle electrodes at 3 Hz. Baseline compound muscle action potential (CMAP) was recorded by a concentric needle electrode placed in the gastrocnemius muscle, following a train of repetitive nerve stimulations at supramaximal intensity. Decrease (percent) in the amplitude of the fifth vs. the first muscle action potential was determined in two sets of repetitive stimulations for each animal. A reduction of 10% or more was considered indicative of neuromuscular transmission dysfunction.
Drug administration: Intravenous injections and blood sampling for anti-AChR antibodies testing were via the right jugular vein under anesthesia. For oral administration, a special needle for oral gavage feeding was used, which is curved with a ball end (Stoelting, Wood Dale Ill.). Mestinon® was administered in a dose of 1 mg/kg/day, and purchased from Hoffmann La-Roche. Basel, Switzerland.

EAMG rats = assay: Repeated daily treatment of EAMG rats (5 days and 1 month): survival, body weight, status; format: in vivo, rat
Text: As shown in Example 5, unlike anti-cholinesterases, rEN101 afforded long-term maintenance of stable CMAP. This further enabled the inventors to test whether the cholinergic imbalance contributes to the physiological deterioration that is characteristic of EAMG. Rats were first treated with rEN101 once a day for 5 days, CMAPs being determined prior to each treatment. Both the efficacy of rEN101 in retrieving normal CMAP and its capacity to reduce the inter-animal variability in CMAP values reached similar levels to those of pyridostigmine (FIGS. 11A and 11B). However, the onset of response to pyridostigmine was more rapid (Table 1), while that observed with rEN101 was longer-lasting. Daily oral or i.v administration of rEN101 stabilized CMAPs over the entire course of treatment (FIG. 11B). In contrast, the effect of pyridostigmine wore off within several hours, causing pronounced fluctuations in muscle status (Table 1 and FIG. 11). Among the animals treated daily with pyridostigmine, 5 out of 6 died within the 5 day experimental course. In contrast, 6 out of 8 animals treated once-a-day with rEN101 via o.g. survived the full 5 day period. This conspicuous difference might reflect the susceptibility of EAMG rats to repeated anesthesia and CMAP measurements. In order to avoid these additional stresses and evaluate the effect of the antisense treatment on EAMG pathophysiology, the inventors subjected groups of moderately sick animals to 1 month of daily oral treatment with minimal interference. […] One way repeated measures ANOVA yielded P<0.05 for all other measures (AS vs. other treatments at 4 weeks). The effect of rEN101 on clinical symptoms was also corroborated by body weight changes. Rats treated with saline and Mestinon treated groups lost 13.5 and 11 g/animal, respectively, whereas animals treated with rEN101 gained, on average, 13 g during the treatment period. Thus, daily rEN101 administration promoted long-term change in the course of EAMG in rats with moderate to severe symptoms, under the same conditions in which untreated or pyridostigmine-treated animals deteriorated.

## 5′-CTGCGATATTTTCTTGTACC-3′ (chemistry not given here) [rEN101]
Healthy rats; i.v., doses 10-500 μg/Kg
  Effect on CMAP in healthy animals: did not affect CMAP
Healthy rats; intravenous, 0 h
  CMAP ratio (5th vs. 1st amplitude): 1.00 ± 0.0
Healthy rats; intravenous, 5 h
  CMAP ratio (5th vs. 1st amplitude): 1.00 ± 0.01
Healthy rats; intravenous, 24 h
  CMAP ratio (5th vs. 1st amplitude): 1.02 ± 0.01
Healthy rats; oral, 0 h
  CMAP ratio (5th vs. 1st amplitude): 1.01 ± 0.01
Healthy rats; oral, 1 h
  CMAP ratio (5th vs. 1st amplitude): 1.0 ± 0.02
Healthy rats; oral, 5 h
  CMAP ratio (5th vs. 1st amplitude): 1.03 ± 0.02
Healthy rats; oral, 24 h
  CMAP ratio (5th vs. 1st amplitude): 1.01 ± 0.00
EAMG rats; EAMG rats treated once-a-day via o.g.
  Animals that survived the full 5 day period: 6 out of 8
EAMG rats; EAMG rats, 1 month daily oral doses (50 μg/Kg)
  Survival, clinical status and treadmill performance vs pyridostigmine- and saline-treated animals: significant improvement in survival, clinical status and treadmill performance
EAMG rats; EAMG rats, 1 month daily oral treatment
  Body weight gained during the treatment period, average: 13 g
